This note sets out measurements from PMC4235344, “A single-component multidrug transporter of the major facilitator superfamily is part of a network that protects E scherichia coli from bile salt stress” (Molecular Microbiology, 2014).

The target of this test is T1, MdtM (Escherichia coli, UniProt P39386).
T1 construct: full-length wild-type, pBAD/Myc-His A vector (pMdtM), homologously overexpressed in E. coli LMG194, purified in DDM
The experiment in a line: intrinsic Trp fluorescence quenching. In kind it is binding.

T1 sequence (P39386 whole entry): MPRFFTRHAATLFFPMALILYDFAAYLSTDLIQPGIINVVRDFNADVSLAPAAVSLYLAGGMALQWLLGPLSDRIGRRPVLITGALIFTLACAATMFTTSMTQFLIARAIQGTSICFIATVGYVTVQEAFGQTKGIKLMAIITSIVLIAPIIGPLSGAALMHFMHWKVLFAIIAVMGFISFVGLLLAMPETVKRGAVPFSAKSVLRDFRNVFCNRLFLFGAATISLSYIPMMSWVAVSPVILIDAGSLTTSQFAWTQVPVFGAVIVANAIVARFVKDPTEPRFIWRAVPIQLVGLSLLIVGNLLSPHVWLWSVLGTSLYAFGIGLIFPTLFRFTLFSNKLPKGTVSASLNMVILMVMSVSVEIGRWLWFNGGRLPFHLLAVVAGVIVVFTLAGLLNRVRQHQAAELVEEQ

A word on the Kd: it is the concentration at which binding is half-saturated. The low end stands for tighter binding, the high end for weaker binding. `C[C@H](CCC(=O)O)[C@H]1CC[C@H]2[C@@H]3CC[C@@H]4C[C@H](O)CC[C@]4(C)[C@H]3C[C@H](O)[C@]12C` [deoxycholate] returned a Kd of 176 ± 20 µM. To `C[C@H](CCC(=O)O)[C@H]1CC[C@H]2[C@@H]3[C@H](O)C[C@@H]4C[C@H](O)CC[C@]4(C)[C@H]3C[C@H](O)[C@]12C` [cholate] belongs 24 ± 6 µM.
